What was measured:
[1] = test system: Akt phosphorylation in B cells; test: IgM-induced Akt phosphorylation in B cell (human PBMC, flow cytometry); format: cell-based; details: 5 min, CD19+ IgM+ B cells in human PBMC, anti IgM for 5 minutes, read-out: IC50, inhibition of IgM-induced Akt Phosphorylation
Method: Human PBMC were prepared from a Buffy coat (Geneve Hospital) after a Ficoll gradient (FICOLL-PAQUE Plus PHARMACIA ref: 17-1440-03).
Cell concentration was adjusted to 10^6 cells per ml in RPMI (GIBCO Ref: 72400-21) without serum. Before stimulation, 90 μl of PBMC suspension was incubated with 10 μl of diluted compound in a 96 well round bottom plate for 20 minutes at 37° C.
For B cell activation, 30 μl of Fab′2 Goat anti IgM (Jackson Immuno-research) at 10 μg/ml was added to each well. After 5 minutes, cell activation was stopped with 4% paraformaldehyde (10 minutes at room temperature).
Fixed PBMC were then treated for 20 minutes with 0.15% Triton, washed twice with PBS and permeabilized with 50% methanol for 15 minutes.
PBMC were washed twice in PBS, resuspended in: PBS-4% FCS and incubated with anti P-Akt (1/100 dilution) for one hour at room temperature.
After one wash, PBMC were further stained for 30 minutes with a mixture of anti-CD19-PE (BD Biosciences), anti-IgM-FITC (BD Biosciences) and goat anti rabbit IgG-Alexa 647 (Molecular probe).
After washing, PBMC (Peripheral Blood Mononuclear Cells) were analysed on a FACSCalibur instrument (BD Biosciences) equipped with a 633 helium-neon laser, or stored at 4° C. for further analysis. 510^3 B cells events were gathered per sample in the CD19 positive region.
For the analysis, a threshold was applied on P-Akt histogram of CD 19+ IgM+ lymphocytes cells from the non-stimulated samples and the percentage of cells above this threshold was determined for each sample.

[2] = test system: PKB/Akt phosphorylation in mast cells; test: SCF-induced PKB/Akt phosphorylation in mast cells; format: cell-based, mice; details: Mast cell, 0.25 h; mast cells derived from mouse bone marrow, 20 ng/mL SCF for 15 minutes; read-out: IC50, inhibition of SCF-induced Akt Phosphorylation
Method: Protocol: Primary bone marrow cells were isolated from 4-8 weeks old wild type mice and derived to mast cells by incubation with medium containing 20 ng/mL of stem cell factor (SCF) (PeproTech, Switzerland) and 20 ng/mL of IL-3 (PeproTech, Switzerland) for at least 4 weeks. Confirmation of the expression of mast cell specific surface markers was done by FACS analysis using antibodies against c-kit (cKit-PE mouse antibody; Pharmingen). Cells were maintained in culture in the presence of SCF and IL-3. To induce PKB/Akt phosphorylation, mast cells were resuspended at 2.5×10^6 cells/mL and starved in medium containing no SCF or IL-3 for 24 h. After preincubation with compounds or 1% DMSO for 20 minutes, cells were activated with 20 ng/mL of SCF for 15 minutes at 37° C., fixed in 1.5% paraformaldehyde for 20 minutes and permeabilised with 0.2% Triton X-100 for 10 minutes, at room temperature. PKB/Akt phosphorylation was visualized using phospho-Ser-473 specific Akt antibodies (Cell Signaling) and standard FACS protocols.

| SMILES | IC50 [1] | IC50 [2] |
| --- | --- | --- |
| COc1ccc(OC)c(Nc2nc3ccccc3nc2NS(=O)(=O)c2ccccc2F)c1 [Example 14, N-{3-[(2,5-dimethoxyphenyl)amino]quinoxalin-2-yl}-2-fluorobenzene sulfonamide] | 34 nM | – |
| COc1cc(Nc2nc3ccccc3nc2NS(=O)(=O)c2ccccc2F)cc(OC)c1 [Example 15, N-{3-[(3,5-dimethoxyphenyl)amino]quinoxalin-2-yl}-2-fluorobenzene sulfonamide] | 26 nM | – |
| COc1cc(Nc2nc3ccccc3nc2NS(=O)(=O)c2cn(C)cn2)cc(OC)c1 [Example 20, N-{3-[(3,5-dimethoxyphenyl)amino]quinoxalin-2-yl}-1-methyl-1H-imidazole-4-sulfonamide] | 24 nM | 410 nM |
| COc1cc(Nc2nc3ccccc3nc2NS(=O)(=O)c2ccccc2Cl)cc(OC)c1 [Example 38, 2-chloro-N-{3-[(3,5-dimethoxyphenyl)amino]quinoxalin-2-yl}benzene sulfonamide] | 40 nM | 1890 nM |
| COc1cc(Nc2nc3ccccc3nc2NS(=O)(=O)c2ccc(C#N)cc2)cc(OC)c1 [Example 39, 4-cyano-N-{3-[(3,5-dimethoxyphenyl)amino]quinoxalin-2-yl}benzene sulfonamide] | 11 nM | 350 nM |
| COc1ccc(OC)c(Nc2nc3ccccc3nc2NS(=O)(=O)c2ccccc2Cl)c1 [Example 42, 2-chloro-N-{3-[(2,5-dimethoxyphenyl)amino]quinoxalin-2-yl}benzene sulfonamide] | 110 nM | – |
| COc1cc(Nc2nc3ccccc3nc2NS(=O)(=O)c2ccc(F)cc2)cc(OC)c1 [Example 56, N-{3-[(3,5-dimethoxyphenyl)amino]quinoxalin-2-yl}-4-fluorobenzene Sulfonamide] | – | 2420 nM |
| COc1cc(Nc2nc3ccccc3nc2NS(=O)(=O)c2cccnc2)cc(OC)c1 [Example 95, N-{3-[(3,5-dimethoxyphenyl)amino]quinoxalin-2-yl}pyridine-3-sulfonamide] | – | 1600 nM |
| COc1ccc(C)c(Nc2nc3ccccc3nc2NS(=O)(=O)c2cccnc2)c1 [Example 101, N-{3-[(5-methoxy-2-methylphenyl)amino]quinoxalin-2-yl}pyridine-3-sulfonamide] | 150 nM | – |
| COc1cc(Nc2nc3ccccc3nc2NS(=O)(=O)c2ccc(C)nc2)cc(OC)c1 [Example 106, N-{3-[(3,5-dimethoxyphenyl)amino]quinoxalin-2-yl}-6-methylpyridine-3-sulfonamide] | – | 1220 nM |
| COc1ccc(C)c(Nc2nc3ccccc3nc2NS(=O)(=O)c2ccc(C#N)cc2)c1 [Example 109, 4-cyano-N-{3-[(5-methoxy-2-methylphenyl)amino]quinoxalin-2-yl}benzenesulfonamide] | – | 820 nM |
| COc1ccc(C)c(Nc2nc3ccccc3nc2NS(=O)(=O)c2ccc(C)nc2)c1 [Example 110, N-{3-[(5-methoxy-2-methylphenyl)amino]quinoxalin-2-yl}-6-methylpyridine-3-sulfonamide] | 140 nM | – |
| COc1ccc(Cl)c(Nc2nc3ccccc3nc2NS(=O)(=O)c2ccc(C)nc2)c1 [Example 111, N-{3-[(2-chloro-5-methoxyphenyl)amino]quinoxalin-2-yl}-6-methylpyridine-3-sulfonamide] | 26 nM | – |
| COc1cc(Nc2nc3ccccc3nc2NS(=O)(=O)c2cccc(CN3CCOCC3)c2)cc(OC)c1 [Example 129, N-{3-[(3,5-dimethoxyphenyl)amino]quinoxalin-2-yl}-3-(morpholin-4-ylmethyl)benzenesulfonamide] | 290 nM | – |
| COc1cc(Nc2nc3ccccc3nc2NS(=O)(=O)c2ccc(CN3CCN(C)CC3)cc2)cc(OC)c1 [Example 130, N-{3-[(3,5-dimethoxyphenyl)amino]quinoxalin-2-yl}-4-[(4-methylpiperazin-1-yl)methyl]benzenesulfonamide] | 60 nM | 130 nM |
| COc1ccc(OC)c(Nc2nc3ccccc3nc2NS(=O)(=O)c2ccc(CN)cc2)c1 [Example 131, 4-(aminomethyl)-N-{3-[(2,5-dimethoxyphenyl)amino]quinoxalin-2-yl}benzenesulfonamide] | 13 nM | 150 nM |

More lines, now with the values ahead:

| IC50 [1] | IC50 [2] | SMILES |
| --- | --- | --- |
| – | 680 nM | COc1cc(Nc2nc3ccccc3nc2NS(=O)(=O)c2cccc(CO)c2)cc(OC)c1 [Example 132, N-{3-[(3,5-dimethoxyphenyl)amino]quinoxalin-2-yl}-3-(hydroxymethyl)benzenesulfonamide] |
| – | 210 nM | COc1cc(Nc2nc3ccccc3nc2NS(=O)(=O)c2ccc(CO)cc2)cc(OC)c1 [Example 134, N-{3-[(3,5-dimethoxyphenyl)amino]quinoxalin-2-yl}-4-(hydroxymethyl)benzenesulfonamide] |
| – | 540 nM | COc1cc(Nc2nc3ccccc3nc2NS(=O)(=O)c2ccc(CO)nc2)cc(OC)c1 [Example 135, N-{3-[(3,5-dimethoxyphenyl)amino]quinoxalin-2-yl}-6-(hydroxymethyl)pyridine-3-sulfonamide] |
| 370 nM | 1220 nM | COc1cc(Nc2nc3ccccc3nc2NS(=O)(=O)c2ccc(CN3CCOCC3)cc2)cc(OC)c1 [Example 136, N-{3-[(3,5-dimethoxyphenyl)amino]quinoxalin-2-yl}-4-(morpholin-4-ylmethyl)benzenesulfonamide] |
| 40 nM | 400 nM | COc1cc(Nc2nc3ccccc3nc2NS(=O)(=O)c2cccc(CN3CCN(C)CC3)c2)cc(OC)c1 [Example 137, N-{3-[(3,5-dimethoxyphenyl)amino]quinoxalin-2-yl}-3-[(4-methylpiperazin-1-yl)methyl]benzenesulfonamide] |
| 27 nM | 270 nM | COc1cc(Nc2nc3ccccc3nc2NS(=O)(=O)c2cccc(CN(C)C)c2)cc(OC)c1 [Example 139, N-{3-[(3,5-dimethoxyphenyl)amino]quinoxalin-2-yl}-3-[(dimethylamino)methyl]benzenesulfonamide] |
| – | 390 nM | COc1cc(Nc2nc3ccccc3nc2NS(=O)(=O)c2ccc(CN3CCN(C)CC3)nc2)cc(OC)c1 [Example 149, N-{3-[(3,5-dimethoxyphenyl)amino]quinoxalin-2-yl}-6-[(4-methylpiperazin-1-yl)methyl]pyridine-3-sulfonamide] |
| 7 nM | 90 nM | COc1cc(Nc2nc3ccccc3nc2NS(=O)(=O)c2ccc(CN)s2)cc(OC)c1 [Example 150, 5-(aminomethyl)-N-{3-[(3,5-dimethoxyphenyl)amino]quinoxalin-2-yl}thiophene-2-sulfonamide] |

From patent US8877757B2, “Pyrazine derivatives and use as PI3K inhibitors” (Merck Serono SA, priority 2005, dated 2014)
